Like-named read-outs stand apart in the source and are kept apart here.
Key:
TTK kinase = molecular target: T1, TTK kinase (Homo sapiens, UniProt P33981); experiment: TTK kinase activity assay (ADP-Glo); type: biochemical; details: initial concentration 1000 nM, 1:3, 10 dilutions; read-out: IC50 (nM), TTK kinase inhibiting activity
T1 construct: purchased Invitrogen PV3792
T1 sequence (P33981 1-857): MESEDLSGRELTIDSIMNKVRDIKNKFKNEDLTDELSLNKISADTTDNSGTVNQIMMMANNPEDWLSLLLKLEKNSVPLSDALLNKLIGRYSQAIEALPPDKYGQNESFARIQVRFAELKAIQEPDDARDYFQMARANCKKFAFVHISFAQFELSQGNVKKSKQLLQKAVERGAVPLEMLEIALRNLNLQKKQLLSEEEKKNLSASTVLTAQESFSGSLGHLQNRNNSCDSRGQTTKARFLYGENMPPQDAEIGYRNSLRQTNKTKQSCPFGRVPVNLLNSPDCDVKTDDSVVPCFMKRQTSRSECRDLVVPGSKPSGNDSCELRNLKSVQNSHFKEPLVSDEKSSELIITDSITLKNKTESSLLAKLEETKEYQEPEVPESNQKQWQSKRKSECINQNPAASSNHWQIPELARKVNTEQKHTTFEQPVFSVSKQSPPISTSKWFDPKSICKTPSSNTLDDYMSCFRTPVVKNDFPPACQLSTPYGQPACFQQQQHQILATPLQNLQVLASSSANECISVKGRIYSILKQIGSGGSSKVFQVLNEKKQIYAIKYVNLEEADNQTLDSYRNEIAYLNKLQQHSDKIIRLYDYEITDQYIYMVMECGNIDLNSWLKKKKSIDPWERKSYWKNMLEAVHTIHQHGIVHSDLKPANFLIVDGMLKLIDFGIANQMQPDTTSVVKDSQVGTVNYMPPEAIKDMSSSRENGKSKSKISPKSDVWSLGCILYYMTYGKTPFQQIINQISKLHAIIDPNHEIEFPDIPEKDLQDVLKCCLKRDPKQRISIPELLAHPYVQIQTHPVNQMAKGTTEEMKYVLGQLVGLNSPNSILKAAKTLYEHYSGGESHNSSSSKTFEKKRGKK
Procedure: TTK kinase was purchased from Invitrogen, Cat.#: PV3792.
• (1) 1×buffer was prepared by diluting 5×buffer into 1×buffer with ddH2O, and adding 0.05 mM DTT. • (2) The compounds of the present invention were prepared at an initial concentration of 1000 nM, and diluted by 1:3 to obtain 10 serial dilutions. • (3) The diluted compounds of the present invention were added to a 384-well plate (purchased from Greiner, product number 784075) by an Echo 550 pipetting workstation, and centrifuged at 1000 g for 1 min. • (3) A 2×TTK enzyme solution was prepared with the 1×buffer. Then, 2.5 µL of the 2× enzyme solution was added to each well, centrifuged at 1000 g for 30 s, and left at room temperature for 10 min. • (4) A 2×MBP substrate/ATP mixture was prepared with the 1×buffer.

[1] = Pharmacokinetic assay in ICR mice (i.v. and p.o.); type: in vivo; details: mouse, plasma, male ICR mice; for half-life: read-out: T½ (converted); for bioavailability: po 10 mg/kg vs iv 1 mg/kg
Summary of the method: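 Fasted male ICR mice (18-22 g) dosed at 1 mg/kg i.v. or 10 mg/kg p.o. in 5% DMSO/95% 30% HP-β-CD, three mice per time point. Submandibular plasma sampled up to 24 h, assayed by LC/MS/MS.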

[2] = Metabolic stability in liver microsomes; type: in vitro ADME, human; details: human, human liver microsomes; 0.5 µM test substance, 0.5 mg/mL microsomes, NADPH and UDPGA, 37° C.; read-out: T½(min), stability in human liver microsomes
Procedure: Liver microsomes (purchased from Reed Liver Disease Research (Shanghai) Co., Ltd., product: human liver microsomes (NJT)); NADPH (purchased from Roche, Lot: 40939); UDPGA; the compounds of the present invention (test substances).
• (1) A mixed working solution of testosterone (0.5 µM) and 7-hydroxycoumarin (0.5 µM) was prepared. • (2) A mixed solution of NADPH (1 mM) and UDPGA (1 mM) was prepared, and prewarmed at 37° C. in a water bath shaker before use. • (3) Liver microsomes were thawed and diluted with a buffer. • (4) A preparation of a test substance (0.5 µM) and a solution of liver microsomes (0.5 mg/mL) were added to each well of an incubation plate. • (5) Three experimental groups were set and samples were added. Test group: the test substance was incubated with liver microsomes for 0 min, 30 min, 60 min, and 120 min in the presence of the coenzyme NADPH and UDPGA; Positive control group: testosterone (0.5 µM) and 7-hydroxycoumarin (0.5 µM) were incubated with microsomes for 0 min and 120 min in the presence of the coenzyme NADPH and UDPGA; Negative control group: the test substance was incubated with microsomes for 0 and 120 min without any coenzyme. • (6) All samples were incubated at 37° C., and pre-cooled methanol was added at each termination time (0, 15, 30, 45, 60 min, 120 min) to terminate the reaction, and the time was recorded. • (7) All samples were mixed well and centrifuged at 4000 rpm for 10 min. The supernatant was taken and measured by LC-MS/MS for the amount of the test substance remaining in the samples. Data analysis was carried out as follows: T½=0.693 /k, Clint = (0.693/T½) × (1 /(microsomal protein) × Scaling Factors), Note: k is the slope of the logarithm of the remaining amounts of compound versus time.

DNA-PK kinase = molecular target: T2, DNA-PK kinase (Homo sapiens, UniProt P78527); experiment: Inhibition assay of DNA-PK kinase (Promega kit, ADP-Glo chemiluminescence); type: biochemical; details: 50 µM ATP, 37° C., 60 min; read-out: IC50 (nM), inhibitory activity on DNA-PK kinase
T2 construct: purchased Promega V4107
Summary of the method: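 Compounds incubated with DNA-PK at 37° C for 60 min; reaction stopped with ADP-Glo reagent (40 min, RT), then kinase detection reagent (30 min, RT). ADP formed read by luminescence against an ADP standard curve.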

Cc1cc(C(N)=O)ccc1Nc1ncc2c(n1)n(C1CCOCC1)c(=O)n2C [Compound 2, 3-Methyl-4-((7-methyl-8-oxo-9-(tetrahydro-2H-pyran-4-yl)-8,9-dihydro-7H-purin-2-yl)amino)benzamide]
IC50 (TTK kinase): 275 nM | AUC ([1]; iv, 1 mg/kg): 265 ng·h/mL | half-life ([1]; iv, 1 mg/kg): 0.87 h | bioavailability [1]: 38.2% | AUC ([1]; po, 10 mg/kg): 1040 ng·h/mL | Cmax ([1]; po, 10 mg/kg): 449 ng/mL | half-life ([1]; po, 10 mg/kg): 1.84 h | half-life at 0.5 µM [2]: > 120 min

Cc1cc(C#N)ccc1Nc1ncc2c(n1)n(C1CCOCC1)c(=O)n2C [Compound 5, 3-Methyl-4-((7-methyl-8-oxo-9-(tetrahydro-2H-pyran-4-yl)-8,9-dihydro-7H-purin-2-yl)amino)benzonitrile]
IC50 (TTK kinase): 1720 nM | AUC ([1]; iv, 1 mg/kg): 234 ng·h/mL | half-life ([1]; iv, 1 mg/kg): 0.333 h | bioavailability [1]: 99.4% | AUC ([1]; po, 10 mg/kg): 2270 ng·h/mL | Cmax ([1]; po, 10 mg/kg): 835 ng/mL | half-life ([1]; po, 10 mg/kg): 3.21 h | half-life at 0.5 µM [2]: > 120 min

Cc1cc(C(N)=O)c(F)cc1Nc1ncc2c(n1)n(C1CCOCC1)c(=O)n2C [Compound 24, 2-Fluoro-5-methyl-4-((7-methyl-8-oxo-9-(tetrahydro-2H-pyran-4-yl)-8,9-dihydro-7H-purin-2-yl)amino)benzamide]
IC50 (TTK kinase): 4220 nM | IC50 (DNA-PK kinase): 0.56 nM | AUC ([1]; iv, 1 mg/kg): 466 ng·h/mL | half-life ([1]; iv, 1 mg/kg): 0.95 h | bioavailability [1]: 135% | AUC ([1]; po, 10 mg/kg): 6280 ng·h/mL | Cmax ([1]; po, 10 mg/kg): 2500 ng/mL | half-life ([1]; po, 10 mg/kg): 3.73 h | half-life at 0.5 µM [2]: > 120 min

CNC(=O)c1ccc(Nc2ncc3c(n2)n(C2CCOCC2)c(=O)n3C)c(C)c1 [Compound 27, N,3-Dimethyl-4-((7-methyl-8-oxo-9-(tetrahydro-2H-pyran-4-yl)-8,9-dihydro-7H-purin-2-yl)amino)benzamide]
IC50 (TTK kinase): 428 nM | IC50 (DNA-PK kinase): 4.36 nM | AUC ([1]; iv, 1 mg/kg): 679 ng·h/mL | half-life ([1]; iv, 1 mg/kg): 1.48 h | bioavailability [1]: 213% | AUC ([1]; po, 10 mg/kg): 14600 ng·h/mL | Cmax ([1]; po, 10 mg/kg): 5450 ng/mL | half-life ([1]; po, 10 mg/kg): 2.17 h | half-life at 0.5 µM [2]: > 120 min

Cc1cc(C(N)=O)ncc1Nc1ncc2c(n1)n(C1CCOCC1)c(=O)n2C [Compound 18, 4-Methyl-5-((7-methyl-8-oxo-9-(tetrahydro-2H-pyran-4-yl)-8,9-dihydro-7H-purin-2-yl)amino)picolinamide]
IC50 (TTK kinase): 387 nM | IC50 (DNA-PK kinase): 2.1 nM | AUC ([1]; iv, 1 mg/kg): 171 ng·h/mL | half-life ([1]; iv, 1 mg/kg): 0.771 h | bioavailability [1]: 78.4% | AUC ([1]; po, 10 mg/kg): 1360 ng·h/mL | Cmax ([1]; po, 10 mg/kg): 312 ng/mL | half-life ([1]; po, 10 mg/kg): 3.06 h | half-life at 0.5 µM [2]: > 120 min

Reference: patent US20230165867A1 (CHENGDU BAIYU PHARMACEUTICAL CO., LTD., priority 2020, published 2023)
